Where two headings read alike, the source gives them in different places.
Assays:
[1] = system: P. gingivalis ATCC 33277; experiment: Lethal photosensitization of P. Gingivalis, colony count; assay type: cell-based, Porphyromonas Gingivalis
Experimental: • Suitable stain dosages for providing lethal sensitization of oral pathogens are determined in vitro by the following procedure. An objective is to determine the minimum duration of light exposure and minimum agent dilution required to achieve at least a 50% reduction in bacteria counts. Experimental tests are performed on two common pathogens using a continuously working, high intensity, red filtered halogen lamp. Red light from the filtered halogen lamp is transmitted through a flexible light guide to radiate downwardly onto petri dishes containing samples of live bacteria of species Porphyromonas Gingivalis and Prevotella Intermedia using the protocols described below. • Bacteria. Prevoltella Intermedia is isolated from patient sample material, identified in the laboratory using standard diagnostic test systems (Remel Inc., Lenexa, Kans., USA) and is maintained by twice-weekly subculture in thioglycollate medium (Becton Dickinson and Co, Sparks, Md., USA). P. gingivalis ATCC 33277 obtained from Remel Inc., is maintained by a twice-weekly subculture on CDC anaerobe blood agar (Becton Dickinson and Co, USA) and in thioglycollate medium (Becton Dickinson and Co, USA). • Light Source. […] The light output power density measured at 3 cm distance from the end of the light guide with filter is about 50 milliwatts/cm2. • Photosensitizer. […]

[2] = system: Escherichia Coli; conditions: micromolar concentrations; gram negative (E. Coli); illuminated in light box; cited from earlier work
[3] = system: Porphyromonas Gingivalis and Prevotella Intermedia; conditions: for bactericidal effect without light exposure: methylene blue 0.075% and 0.1%, no red halogen light
[4] = system: Candida albicans; conditions: methylene blue 450 and 500 microgram/mL; diode laser 664 nm, 275 J/cm fiber length, 400 mW, 687.5 seconds; immunosuppressed murine model; cited from earlier work
[5] = system: Staphylococcus Aureus; conditions: micromolar concentrations; gram positive (Staph aureus); illuminated in light box; cited from earlier work

Row | SMILES | bacterial killing without light exposure ([1]; methylene blue 0.01%, without light exposure, P.gingivalis culture) | bactericidal effect on P.gingivalis ([1]; methylene blue 0.1%) | bacterial cell death by phototoxicity [2] | killing with duration of red-filtered light exposure ([3]; 1, 5 and 10 min with methylene blue 0.05%, 5 and 10 min with methylene blue 0.025%) | reduction in bacteria counts ([3]; light 5 min with methylene blue 0.025%, light 1 min with methylene blue 0.05% and higher) | killing of bacteria without halogen light ([3]; methylene blue 0.001% or 0.025%, without halogen light) | bactericidal effect in combination with red-filtered high-intensity light ([3]; methylene blue 0.01% or higher, exposure less than 10 minutes, accumulated energy 30 J/cm^2, both species) | survival rate (bacterial colony count) ([3]; methylene blue 0.05% and higher, red light exposure 10 or 20 minutes) [%] | reduction of bacteria, methylene blue alone ([3]; methylene blue 0.05%, without exposure to light) | bactericidal effect without light exposure [3] | bactericidal effect without light exposure ([3]; listed as Methylene blue) | eradication of Candida albicans [4] | bacterial cell death by phototoxicity [5]
1 | CN(C)c1ccc2nc3ccc(=[N+](C)C)cc-3sc2c1 [methylene blue] | statistically significant bacterial killing | bactericidal effect | bacterial cell death | statistically significant increased killing with duration | Significant reduction in bacteria counts | nor concentrations of methylene blue of 0.001% or 0.025%, without halogen light, appeared to be effective in killing bacteria | bactericidal effect | ≤ 50 | insignificant | significantly bactericidal | significant bactericidal effect | totally eradicate | bacterial cell death
2 | Cc1cc2nc3ccc(N(C)C)cc3[s+]c2cc1N.[Cl-] [toluidine blue O] | – | – | bacterial cell death | – | – | – | – | – | – | – | – | – | bacterial cell death

Reference: patent US7544204B2, “Control of halitosis-generating and other microorganisms in the non-dental upper respiratory tract” (Valam Corporation, priority 2003, dated 2009)
